{
  "source": "patent US6696440B1",
  "about": "“Treatment of asthma with MEK inhibitors” (Warner-Lambert Company, priority 1999, dated 2004)",
  "key": {"OVA-primed splenocytes": {"tested_on": "OVA-primed splenocytes", "assay": "Inhibition of antigen-induced IL-5 production by OVA-primed splenocytes in vitro", "format": "cell-based, mice", "conditions": "Mus musculus, Splenocyte, 72 h; OVA-sensitized splenocytes cultured 3 days with 200 μg/mL OVA; IL-5 by ELISA", "description": "(§1) For each of these assays, female C57BL/6 mice obtained from the Jackson Laboratory (Bar Harbor, Me.) were given an intraperitoneal (i.p.) injection of ovalbumin (OVA, Grade V, Sigma Chemical Company, St. Louis, Mo.) adsorbed to aluminum hydroxide (10 μg OVA+9 mg aluminum hydroxide in 200 μL saline). This sensitizes OVA-specific lymphocytes for subsequent restimulation either in vivo or in vitro.\nThe first set of experiments was designed to determine whether the MEK inhibitors could prevent antigen-induced production of IL-5 by the OVA-primed splenocytes in vitro. IL-5 is required for the differentiation, migration, and survival of pulmonary eosinophils, which are thought to be responsible for much of the pathology associated with human asthma. In order to examine the effects of MEK inhibitors on IL-5 production, OVA-sensitized mice were sacrificed by cervical dislocation 14 days after sensitization (Day 14), the spleens were excised and disaggregated, and the erythrocytes were lysed. The splenocytes were washed and resuspended at […] in complete medium consisting of RPMI 1640 (Gibco BRL, Gaithersburg, Md.) with 10% heat-inactivated fetal calf serum (Hyclone, Logan, Utah), 55 μM 2-mercaptoethanol, 50 U/mL penicillin G, 50 μg/mL streptomycin sulfate, and 2 mM L-glutamine (Gibco BRL). The splenocytes were then cultured at 37° C. in the presence of 200 μg/mL OVA. MEK inhibitors were also added to the cultures from sterile 10 mM stock solutions (in DMSO). After 3 days, the culture medium was recovered and assayed for IL-5 by specific ELISA."}, "BAL eosinophils [1]": {"tested_on": "BAL eosinophils", "assay": "Active OVA-induced eosinophilic lung inflammation in mice, oral dosing", "format": "in vivo", "conditions": "for % Inhibition of BAL Eosinophils / % Inhibition of BAL Eosinophilia: oral; for % Inhibition of BAL Eosinophilia: 4 days (Day 13 to Day 16); for activity against BAL eosinophils (in words): multiple doses, dosing for 4 days (Table 4); for inhibitory activity against BAL eosinophils (in words): oral dosing schedule of 9 days (Table 5)", "description": "as §1\nThe final set of experiments was designed to test whether MEK inhibitors could inhibit active OVA-induced eosinophilic lung inflammation in mice. Mice were sensitized with OVA/aluminum hydroxide on Day 0 as described above. On Day 14, the mice were challenged by aerosol with 1.5% OVA, as described above for the adoptive-transfer recipients. One group of eight sensitized mice was dosed orally with vehicle (0.5% hydroxypropylmethylcellulose/0.25% TWEEN-80). Other groups of sensitized mice (8 mice per group) were given oral doses of a MEK inhibitor. The test compound was dissolved in the vehicle, and the volume for each dosage was adjusted to 200 μL, so that each test animal received the same oral volume. In experiments reported in Table 3 and Table 4, the MEK inhibitor was administered starting on Day 13 (ie, 13 days after initial sensitization and 1 day prior to aerosol challenge), and continued daily through Day 16 (4 days total). In experiments reported in Table 5, the MEK inhibitor was administered starting on Day 7 (ie, 7 days after initial sensitization and 7 days prior to aerosol challenge), and continued daily through […]. On Day 17 of each experiment (17 days following the initial OVA challenge, and 3 days after the OVA aerosol challenge), all animals including controls were anesthetized, cannulated, and lavaged as previously described. The number of BAL eosinophils was determined as described above."}, "BAL eosinophils [2]": {"tested_on": "BAL eosinophils", "assay": "Adoptive (passive) transfer of eosinophilic lung inflammation by MEK inhibitor-treated splenocytes", "format": "in vivo", "conditions": "spleen cell culture treated with 10 μM compound; cells transferred to naive mice; OVA aerosol challenge", "description": "as §1\nWhen OVA-sensitized spleen cells are restimulated with OVA in vitro for 3 days, as described above, the spleen cells not only produce IL-5, but also acquire the ability to induce eosinophilic lung inflammation when transferred into naive recipient mice. The critical cell type responsible for this adoptively-transferred activity is thought to be IL-5-producing T lymphocytes. […] Splenocytes from OVA restimulation cultures, with or without the addition of MEK inhibitors were harvested after 3 days of culture, washed three times, and resuspended at 1×10^8 cells/mL in sterile saline. Groups of five naive (unsensitized) […] mice were injected i.p. with 200 μL of the cell suspension (2×10^7 cells). Three days after transfer of cells, the recipient mice were challenged with a 12-minute inhalation of an aerosol formulation of 1.5% OVA in saline (weight/volume), the mist being produced by a nebulizer (small particle generator model SPAG-2, ICN Pharmaceuticals, Costa Mesa, Calif.). Three days after aerosol challenge, the mice were anesthetized with an i.p. injection of an anesthetic mixture comprising Ketamine, acepromazine, and xylazine. The trachea of each mouse was exposed and cannulated. The lungs and upper airways were lavaged with 0.5 mL of cold (5° C.) phosphate buffered saline (PBS). The cells within a 200 μL portion of the bronchoalveolar lavage (BAL) fluid were enumerated using a Coulter counter (Model ZB 1, Coulter Electronics, Hialeah, Fla.). […] The number of eosinophils in the BAL fluid was determined by multiplying the percentage of eosinophils by the total cell count."}, "[3]": {"conditions": "4-day compound dosing, 10 mg/kg"}, "[4]": {"conditions": "4-day compound dosing, 30 mg/kg"}, "[5]": {"conditions": "4-day compound dosing, 100 mg/kg"}},
  "note": "Marks after values point to notes of the source that are not given here.",
  "data": [
    {"molecule": "Cc1cc(I)ccc1Nc1cc(F)ccc1C(=O)O", "note": "[Example 1, 4-Fluoro-2-(4-iodo-2-methylphenylamino)benzoic Acid]", "values": [
      {"measurement": "melting point", "value": "224 to 229.5", "unit": "°C"}
    ]},
    {"molecule": "Cc1cc(I)ccc1Nc1ccccc1C(=O)O", "note": "[Example 19, 2-(4-Iodo-2-methyl-phenylamino)-benzoic acid]", "values": [
      {"measurement": "melting point", "value": "218 to 223", "unit": "°C"}
    ]},
    {"molecule": "COc1ccc(Nc2ccc(I)cc2)c(C(=O)O)c1", "note": "[Example 24, 2-(4-Iodo-phenylamino)-5-methoxy-benzoic acid]", "values": [
      {"measurement": "melting point", "value": "208 to 211", "unit": "°C"}
    ]},
    {"molecule": "Cc1cc(I)ccc1Nc1ccccc1-c1nnn[nH]1", "note": "[Example 208, (4-iodo-2-methyl-phenyl)-[2-(1H-tetrazol-5-yl)-phenyl]amine]", "values": [
      {"measurement": "melting point", "value": "231 °C (dec.)"}
    ]},
    {"molecule": "COc1cccc(-c2cc(=O)c3ccccc3o2)c1N", "note": "[PD 098059, 2-(2-amino-3-methoxyphenyl)-4-oxo-4H-[1]benzopyran, reference compound]", "values": [
      {"measurement": "IC50", "setting": "OVA-primed splenocytes", "value": 17400, "unit": "nM"}
    ]},
    {"molecule": "Cc1cc(I)ccc1Nc1cc(F)ccc1C(=O)NO", "note": "[PD 170611, 2-(2-Methyl-4-iodophenylamino)-N-hydroxy-4-fluorobenzamide]", "values": [
      {"measurement": "IC50", "setting": "OVA-primed splenocytes", "value": 1120, "unit": "nM"},
      {"measurement": "melting point", "value": "61 to 75", "unit": "°C"}
    ]},
    {"molecule": "Cc1cc(I)ccc1Nc1c(C(=O)NO)cc(Br)c(F)c1F", "note": "[PD 171984, 2-(2-Methyl-4-iodophenylamino)-N-hydroxy-3,4-difluoro-5-bromobenzamide]", "values": [
      {"measurement": "IC50", "setting": "OVA-primed splenocytes", "value": 117, "unit": "nM"},
      {"measurement": "% Inhibition of BAL Eosinophils", "setting": "BAL eosinophils [1]; [3]", "value": "38.4* %"},
      {"measurement": "% Inhibition of BAL Eosinophils", "setting": "BAL eosinophils [1]; [4]", "value": "46.6* %"},
      {"measurement": "% Inhibition of BAL Eosinophils", "setting": "BAL eosinophils [1]; [5]", "value": "58.4* %"},
      {"measurement": "% Inhibition of BAL Eosinophils", "setting": "BAL eosinophils [1]; 9-day compound dosing, 10 mg/kg, Experiment 1", "value": "−13.74", "unit": "%"},
      {"measurement": "% Inhibition of BAL Eosinophils", "setting": "BAL eosinophils [1]; 9-day compound dosing, 10 mg/kg, Experiment 2", "value": "50.15* %"},
      {"measurement": "% Inhibition of BAL Eosinophils", "setting": "BAL eosinophils [1]; 9-day compound dosing, 30 mg/kg, Experiment 1", "value": "80.64* %"},
      {"measurement": "% Inhibition of BAL Eosinophils", "setting": "BAL eosinophils [1]; 9-day compound dosing, 30 mg/kg, Experiment 2", "value": "37.23* %"},
      {"measurement": "% Inhibition of BAL Eosinophils", "setting": "BAL eosinophils [1]; 9-day compound dosing, 100 mg/kg, Experiment 1", "value": "88.40* %"},
      {"measurement": "% Inhibition of BAL Eosinophils", "setting": "BAL eosinophils [1]; 9-day compound dosing, 100 mg/kg, Experiment 2", "value": "54.77* %"},
      {"measurement": "% Inhibition of BAL Eosinophilia", "setting": "BAL eosinophils [1]; Dose 100", "value": "55.26* %"},
      {"measurement": "inhibition of pulmonary eosinophilia (in words)", "setting": "BAL eosinophils [1]; initial analysis, dosed orally for 4 days (Table 3)", "value": "demonstrated any inhibition of pulmonary eosinophilia"},
      {"measurement": "activity against BAL eosinophils (in words)", "setting": "BAL eosinophils [1]", "value": "appears active"},
      {"measurement": "inhibitory activity against BAL eosinophils (in words)", "setting": "BAL eosinophils [1]", "value": "statistically significant inhibitory activity"},
      {"measurement": "melting point", "value": "80 to 90", "unit": "°C"},
      {"measurement": "% Inhibition of BAL Eosinophils", "setting": "BAL eosinophils [2]", "value": 99.82, "unit": "%"}
    ]},
    {"molecule": "Cc1cc(I)ccc1Nc1c(C(=O)NOCC2CC2)cc(Br)c(F)c1F", "note": "[PD 177168, 2-(2-Methyl-4-iodophenylamino)-N-cyclopropylmethoxy-3,4-difluoro-5-bromobenzamide]", "values": [
      {"measurement": "IC50", "setting": "OVA-primed splenocytes", "value": 1200, "unit": "nM"},
      {"measurement": "% Inhibition of BAL Eosinophilia", "setting": "BAL eosinophils [1]; Dose 100", "value": "−23.38", "unit": "%"}
    ]},
    {"molecule": "O=C(NOCC1CC1)c1cc(Br)c(F)c(F)c1Nc1ccc(I)cc1Cl", "note": "[PD 184161, 2-(2-Chloro-4-iodophenylamino)-N-cyclopropylmethoxy-3,4-difluoro-5-bromobenzamide]", "values": [
      {"measurement": "IC50", "setting": "OVA-primed splenocytes", "value": 1150, "unit": "nM"},
      {"measurement": "% Inhibition of BAL Eosinophilia", "setting": "BAL eosinophils [1]; Dose 100", "value": "−32.53", "unit": "%"}
    ]},
    {"molecule": "O=C(NOCC1CC1)c1ccc(F)c(F)c1Nc1ccc(I)cc1Cl", "note": "[PD 184352, 2-(2-Chloro-4-iodophenylamino)-N-cyclopropylmethoxy-3,4-difluorobenzamide]", "values": [
      {"measurement": "IC50", "setting": "OVA-primed splenocytes", "value": 1620, "unit": "nM"},
      {"measurement": "% Inhibition of BAL Eosinophils", "setting": "BAL eosinophils [1]; [3]", "value": "−22.7", "unit": "%"},
      {"measurement": "% Inhibition of BAL Eosinophils", "setting": "BAL eosinophils [1]; [4]", "value": "−153.8", "unit": "%"},
      {"measurement": "% Inhibition of BAL Eosinophils", "setting": "BAL eosinophils [1]; [5]", "value": "−8.2", "unit": "%"},
      {"measurement": "% Inhibition of BAL Eosinophils", "setting": "BAL eosinophils [1]; 9-day compound dosing, 10 mg/kg", "value": "−42.99", "unit": "%"},
      {"measurement": "% Inhibition of BAL Eosinophils", "setting": "BAL eosinophils [1]; 9-day compound dosing, 30 mg/kg", "value": 1.83, "unit": "%"},
      {"measurement": "% Inhibition of BAL Eosinophils", "setting": "BAL eosinophils [1]; 9-day compound dosing, 100 mg/kg", "value": 59.85, "unit": "%"},
      {"measurement": "% Inhibition of BAL Eosinophilia", "setting": "BAL eosinophils [1]; Dose 150", "value": "−5.41", "unit": "%"},
      {"measurement": "activity against BAL eosinophils (in words)", "setting": "BAL eosinophils [1]", "value": "does not"},
      {"measurement": "inhibitory activity against BAL eosinophils (in words)", "setting": "BAL eosinophils [1]", "value": "shown to inhibit the asthma-like response in mice"},
      {"measurement": "% Inhibition of BAL Eosinophils", "setting": "BAL eosinophils [2]", "value": 99.46, "unit": "%"}
    ]},
    {"molecule": "O=C(NO)c1cc(Br)c(F)c(F)c1Nc1ccc(I)cc1Cl", "note": "[PD 184386, 2-(2-Chloro-4-iodophenylamino)-N-hydroxy-3,4-difluoro-5-bromobenzamide]", "values": [
      {"measurement": "IC50", "setting": "OVA-primed splenocytes", "value": 23, "unit": "nM"},
      {"measurement": "% Inhibition of BAL Eosinophilia", "setting": "BAL eosinophils [1]; Dose 100", "value": "−33.24", "unit": "%"},
      {"measurement": "% Inhibition of BAL Eosinophils", "setting": "BAL eosinophils [2]", "value": 99.78, "unit": "%"}
    ]}
  ]
}
